According to the CheMixHub ionic liquid set:

Experiment: xn = mol fraction of the nth substance listed

CCC[n+]1ccn(C)c1.C[C@H](N)C(=O)[O-] + O
viscosity [mPa·s], 100.3 kPa
Details | 288.15 K | 293.15 K | 298.15 K | 303.15 K | 308.15 K | 313.15 K | 318.15 K | 323.15 K | 328.15 K
x1 = 0.0003008 | 1.156 | 1.017 | 0.9 | 0.81 | 0.727 | 0.661 | 0.604 | 0.554 | 0.511
x1 = 0.0003999 | 1.162 | 1.022 | 0.907 | 0.813 | 0.732 | 0.664 | 0.606 | 0.557 | 0.513
x1 = 0.0004953 | 1.167 | 1.027 | 0.911 | 0.817 | 0.735 | 0.666 | 0.608 | 0.559 | 0.516
x1 = 0.001005 | 1.203 | 1.057 | 0.938 | 0.838 | 0.755 | 0.685 | 0.626 | 0.573 | 0.529
x1 = 0.003004 | 1.362 | 1.197 | 1.057 | 0.939 | 0.842 | 0.759 | 0.688 | 0.629 | –
x1 = 0.004999 | 1.513 | 1.326 | 1.163 | 1.028 | 0.917 | 0.828 | 0.749 | 0.685 | –
x1 = 0.007004 | 1.658 | 1.447 | 1.273 | 1.119 | 0.998 | 0.894 | 0.806 | 0.736 | –
x1 = 0.008999 | 1.822 | 1.576 | 1.368 | 1.21 | 1.071 | 0.959 | 0.868 | 0.781 | –
x1 = 0.011 | 1.958 | 1.698 | 1.478 | 1.302 | 1.147 | 1.027 | 0.929 | 0.832 | –
x1 = 0.01301 | 2.101 | 1.819 | 1.581 | 1.38 | 1.225 | 1.089 | 0.986 | 0.888 | –
x1 = 0.015 | 2.247 | 1.941 | 1.678 | 1.469 | 1.293 | 1.157 | 1.037 | 0.932 | –
x1 = 0.01799 | 2.46 | 2.109 | 1.826 | 1.599 | 1.394 | 1.254 | 1.115 | 1 | –

CCCn1cc[n+](C)c1C.F[B-](F)(F)F + O
101 kPa
Details | viscosity [mPa·s]
298.15 K, x2 = 0.1932 | 134.9
303.15 K, x2 = 0.1932 | 103.3
303.15 K, x2 = 0.3944 | 40.4
303.15 K, x2 = 0.4987 | 25.5
308.15 K, x2 = 0.2833 | 53.2
308.15 K, x2 = 0.3944 | 32.95
308.15 K, x2 = 0.5995 | 13.58
318.15 K, x2 = 0.0939 | 78.6
318.15 K, x2 = 0.1932 | 52.1
333.15 K, x2 = 0.0939 | 42.5
333.15 K, x2 = 0.5995 | 6.65
333.15 K, x2 = 0.6985 | 4.37
343.15 K, x2 = 0.0939 | 29.96

CC[n+]1ccccc1.N#C[N-]C#N + O
100 kPa
Details | electrical conductivity [S/m] | viscosity [mPa·s]
298.15 K, x1 = 0.9411 | 2.15 | –
298.15 K, x1 = 0.9677 | 1.94 | –
298.15 K, x2 = 0.01044 | – | 16.52
303.15 K, x1 = 0.9542 | 2.27 | –
303.15 K, x1 = 0.9756 | – | 13.97
308.15 K, x1 = 0.9542 | 2.58 | –
308.15 K, x2 = 0.01044 | – | 12.55
313.15 K, x1 = 0.9355 | – | 10.08
313.15 K, x1 = 0.9619 | – | 10.49
313.15 K, x1 = 0.9677 | 2.82 | –
313.15 K, x2 = 0.01044 | – | 11.02
318.15 K, x1 = 0.9542 | 3.25 | –
323.15 K, x1 = 0.9756 | – | 8.27
328.15 K, x1 = 0.9756 | – | 7.44
333.15 K, x1 = 0.9283 | 4.91 | –
333.15 K, x1 = 0.9411 | 4.81 | –
333.15 K, x1 = 0.9677 | 4.61 | –
338.15 K, x1 = 0.9355 | – | 5.76
338.15 K, x1 = 0.9485 | – | 5.86
338.15 K, x1 = 0.9756 | – | 6.1

Cn1cc[n+](CCO)c1.O=S(=O)([O-])C(F)(F)C(F)(F)C(F)(F)C(F)(F)F + O
101 kPa
Details | electrical conductivity [S/m] | viscosity [mPa·s]
298.15 K, x1 = 0.02322 | 4.64 | 2.48
298.15 K, x1 = 0.02741 | 4.83 | 2.81
298.15 K, x1 = 0.05114 | – | 5.32
298.15 K, x1 = 0.05966 | – | 6.3
298.15 K, x1 = 0.09831 | 4.54 | 11.5
298.15 K, x1 = 0.1816 | 2.58 | 27.4
298.15 K, x1 = 0.6778 | 0.116 | 256
308.15 K, x1 = 0.04384 | – | 3.39
308.15 K, x1 = 0.0644 | – | 5.13
308.15 K, x1 = 0.06999 | – | 5.73
308.15 K, x1 = 0.07565 | – | 6.11
308.15 K, x1 = 0.08994 | – | 7.61
308.15 K, x1 = 0.1303 | – | 11.95
308.15 K, x1 = 0.1442 | – | 13.84
308.15 K, x1 = 0.2068 | – | 21.6
308.15 K, x1 = 0.3955 | – | 53.9
318.15 K, x1 = 0.02322 | – | 1.601
318.15 K, x1 = 0.03214 | – | 2.096
318.15 K, x1 = 0.04384 | – | 2.67
318.15 K, x1 = 0.05966 | – | 3.7
318.15 K, x1 = 0.09831 | – | 6.23
318.15 K, x1 = 0.1303 | – | 8.76
318.15 K, x1 = 0.2329 | – | 17.91

C[n+]1ccn(CCCC#N)c1.O=S(=O)([O-])C(F)(F)F + O=C1CCCO1
100 kPa
Details | electrical conductivity [S/m]
288.15 K, x1 = 0.3003 | 0.53
288.15 K, x1 = 0.6002 | 0.186
288.15 K, x1 = 1 | 0.023
293.15 K, x1 = 0.9004 | 0.069
298.15 K, x1 = 0.9004 | 0.092
303.15 K, x1 = 0.4999 | 0.459
303.15 K, x1 = 0.8002 | 0.179
303.15 K, x1 = 0.9004 | 0.12
308.15 K, x1 = 0.6002 | 0.408
308.15 K, x1 = 1 | 0.083
313.15 K, x1 = 0.3003 | 1.08
313.15 K, x1 = 0.6002 | 0.476
313.15 K, x1 = 0.7001 | 0.372
318.15 K, x1 = 0.8002 | 0.323
318.15 K, x1 = 0.9004 | 0.234
318.15 K, x1 = 1 | 0.134
323.15 K, x1 = 0.3003 | 1.344
323.15 K, x1 = 0.8002 | 0.384
323.15 K, x1 = 0.9004 | 0.281
323.15 K, x1 = 1 | 0.167
333.15 K, x1 = 0.3999 | 1.323
338.15 K, x1 = 0.3003 | 1.79
338.15 K, x1 = 1 | 0.3
343.15 K, x1 = 0.7001 | 0.851
